Results as given in US8247449B2, “Methods and compositions for the treatment of asthma” (Wake Forest University, priority 1998, dated 2012).
“Also recorded” adds a separate entry of the source. Read-outs that look alike come from different tables or passages of the source. Each block holds one molecule with its values, some of them ahead of it.

What was measured:
[1] = system: leukotriene generation by stimulated neutrophils; test: Inhibition of leukotriene generation in A23187-stimulated neutrophils in vitro; format: cell-based, human; settings: neutrophils from unsupplemented volunteers, ionophore A23187, read-out: IC50 of inhibition of leukotriene generation (LTB4 and 20-OH LTB4)
Description: (§1) Leukotrienes are separated by reverse phase HPLC utilizing an Ultrasphere ODS column (2.1 mm.×250 mm: Rainin Instrument Co, Woburn, Mass.) eluted with methanol/water/phosphoric acid (550:450:0.2 v/v, pH 5.7) as the mobile phase at 0.3 ml/min. After 5 min the methanol composition of the mobile phase is increased from 55% to 100% over a 20 min period. The mole quantities of each leukotriene are determined by examining its UV optical density at 270 nm. Individual peaks are integrated and their recoveries normalized by comparing these integrated areas to that of PGB2 added as an internal standard.
It is contemplated that neutrophils may also produce 8-hydroxy-9,11,14 […] from DGLA. […] Studies were also designed to examine whether 15-HETrE produced by neutrophils might influence LTB4 generation. […] Neutrophils were isolated from normal unsupplemented volunteers and were treated with various concentrations of 15-HETrE and then stimulated with ionophore A23187.

[2] = system: Δ^5 desaturase in human liver cell line HEP-G2; test: Inhibition of DGLA conversion to AA (Δ5 desaturase) in HEP-G2 liver cells; format: cell-based; settings: HepG2, HEP-G2, EPA at 50 μM added with DGLA, read-out: maximum inhibition of DGLA conversion to AA
Text: This study illustrates the effectiveness of adding a Δ^5 desaturase inhibitor in conjunction with GLA in order to reduce serum arachidonic acid.

[3] = system: neutrophils; settings: 3.0 g/day GLA
Description: as §1
To examine this question, neutrophils were stimulated and the synthesis of LTB4, 20-OH LTB4, and the 6 trans isomers of LTB4 were measured by reverse phase HPLC analysis.

[4] = in vivo
Description: Serum is extracted from 2 ml of venous blood from donors. Briefly, blood samples are incubated at 37° C. for 30 min. Blood clots are removed from the serum by centrifugation (600×g, 10 min). Residual red blood cells are removed from the serum by centrifugation using a Beckman Microfuge E for 5 min. After the addition of 1.9 ml of water to a 0.1 ml aliquot of the serum, lipids are extracted by the method of Bligh and Dyer (Bligh and Dyer, Can. J. Biochem. Physiol., 37:911-920, 1959); Chilton et al., J. Biol. Chem., 258:7268-7271, 1983). A portion (5%) of the extracted lipids is used to determine the mole quantities of fatty acids by GC/MS. Serum components are isolated into individual glycerolipid classes by TLC (System II or normal phase HPLC (Bligh and Dyer, 1959).
Free fatty acids are obtained from glycerolipids by base hydrolysis using 2 N KOH (30 min, 60° C.). […] The carboxylate anion of all fatty acids of interest and [^2H3]-stearic acid and [^2H8]-arachidonate (internal standard) are analyzed by NICI GC/MS using a Hewlett Packard mass spectrometer (HP 5989A). […]
The next set of studies was designed to determine the distribution of supplemented fatty acids or their metabolites within individual glycerolipid classes of serum. […] Serum glycerolipids were separated by TLC and fractions were analyzed for fatty acid content following base hydrolysis by NICI-GC/MS.

[5] = system: neutrophils
Description: Free fatty acids are obtained from glycerolipids by base hydrolysis using 2 N KOH (30 min, 60° C.). After the addition of an equal volume of water, the pH of the reaction mixture is adjusted to 3 using 6 N HCl. Free fatty acids are then extracted with ethyl ether and converted to pentafluorobenzylesters using an equal volume of 20% pentafluorobenzylchloride in acetonitrile and 20% diisopropylethylamine in acetonitrile. The carboxylate anion of all fatty acids of interest and [^2H3]-stearic acid and [^2H8]-arachidonate (internal standard) are analyzed by NICI GC/MS using a Hewlett Packard mass spectrometer (HP 5989A).
Neutrophils were next obtained from subjects before and after supplementation and stimulated with ionophore A23187.

[6] = system: human eosinophils; settings: eosinophils from atopic subjects incubated with GLA
Description: Eosinophils are purified by negative, immunomagnetic selection using monoclonals against FcKRIII (CD 16) present on neutrophils. Antibody tagged neutrophils are then incubated with anti-mouse IgG conjugated magnetic beads and removed by filtration over a magnetized steel wool column.
Therefore, it was important to determine how GLA was metabolized by human eosinophils. Thus, eosinophils were isolated from atopic subjects and incubated with GLA as described above.

[7] = system: neutrophils; settings: 3.0 g/day GLA; remark: listed apart in the source
Text: A final set of studies measured changes in the capacity of neutrophils to generate PAF ex vivo before and after GLA supplementation.

[8] = system: human neutrophils; test: In vitro metabolism of GLA / DGLA in cultured human neutrophils; format: cell-based
Description: It is generally assumed that the liver has a key role in the in vivo elongation and desaturation of n-6 fatty acids. However, the role of other cells (especially inflammatory cells) and tissues has not been extensively studied. In addition, it is critical to evaluate the mechanism of leukotriene inhibition in less complex (than in vivo model) systems. To begin to address these problems, the inventor developed a model in which neutrophils could be incubated long-term with fatty acids or other fatty acid derivatives. Human neutrophils have been isolated and cultured overnight in RPMI, 2% insulin-transferrin and fetal bovine serum (FBS). In initial studies, varying concentrations of GLA (complexed to albumin) were provided to these cultured neutrophils for 24 h. […] In contrast, there was no change in the quantity of AA in neutrophil phospholipids. […] Furthermore, they provide direct evidence that the neutrophils themselves can elongate GLA […].
It has been long recognized that arachidonate is hydrolyzed from membrane glycerolipids by phospholipase A2 isotypes during cell stimulation. However, to date, there is little direct evidence that similar mechanisms exist to mobilize DGLA. To examine this question, neutrophils that had been cultured with varying concentrations of GLA (0 to 200 nmol) were stimulated with ionophore A23187, and mobilized fatty acids were measured by NICI GC/MS. […] To determine if neutrophils can further metabolize DGLA to oxygenated products, stimulated cells were provided [^14C]-DGLA and products were measured by reverse HPLC. […] FIG. 11 illustrates that A23187 stimulated neutrophils produce a labeled product that migrated with 15-HETrE.

[9] = system: atopic asthmatics
Text: Clinical data on each patient is entered into a database consisting of the following elements. Demographic data (age, sex, race, smoking history), and the data elements used to fulfill the above diagnostic criteria, spirometric data, presence of atopy (positive “prick” skin testing to respirable antigens), presence of LAR to inhaled antigen, and presence of allergic rhinoconjunctivitis. • Allergen skin testing—Atopic asthmatic subjects are identified by skin testing using the skin prick method at a 1:10 (wt/vol) dilution of 20 stock antigen solutions (Greer Laboratories, Lenoir, N.C.). Subjects must not be receiving immunotherapy, nor may they be treated with systemic corticosteroids for a minimum of 4 wk. Short acting antihistamines are avoided for at least 24 h and long acting for at least 7 days. Atopic subjects are defined as those with a positive response consisting of a wheal of at least 3 by 3 mm to one or more antigens, with an appropriately negative saline control. • Allergen Inhalation Challenge—The immediate (early) asthmatic response (EAR) or late asthmatic response (LAR) is studied under controlled conditions using inhaled antigenic challenge in volunteer patients with asthma using a previously described protocol (Smith et al., Clin. Pharm. Ther., 54:430-436, 1993). Atopic asthmatics undergo inhaled allergen challenge followed by BAL according to the following protocol. Subjects must have no lung disease other than asthma, and, on the day of testing, must have a baseline FEV1>70% of predicted. Subjects must not be receiving immunotherapy, nor may they be treated with cromolyn sodium or corticosteroids (inhaled or systemic) or leukotriene antagonist for a minimum of 4 wk. Short-acting antihistamines are avoided for at least 24 h and intermediate acting for 7 days (astemizole for 6 weeks). Theophylline preparations are withheld for 24 h prior to challenge and beta-agonists for 8 h prior to challenge. On the day of challenge, subjects must be wheeze-free, with an FEV1>than 80% of the previously observed highest value. If the patient has an intercurrent respiratory infection, inhalation challenge is postponed for at least 6 wk. Antigens to which the subject is perennially exposed (e.g., mite, cat) are utilized whenever possible to minimize the impact of seasonal variations in environmental exposure to the specific antigen. Further, antigen testing is conducted out of the respective allergen season, or after attempts to minimize environmental exposure (e.g., to mites or cats) have been implemented. Antigenic challenge generally begins between 7:30 and 8:00 am and the patient is monitored for a minimum of 12 h following antigenic challenge. […] The subject breathes quietly from a continuous hand-held nebulizer for 2 min at each concentration. Following each concentration, the FEV1 is measured at 5 min intervals (DS Plus, Warren E. Collins, Inc., Braintree, Mass.). […] Once a 20% drop in FEV1 is measured, or following the highest concentration, spirometry is performed every 15 min for the first hour and then hourly for the next 11 h.

[10] = system: atopic asthmatics; test: Inhaled antigen challenge model of atopic asthma with prednisone; format: in vivo, human; settings: 40 mg prednisone daily for 7 days
Text: Clinical data on each patient is entered into a database consisting of the following elements. Demographic data (age, sex, race, smoking history), and the data elements used to fulfill the above diagnostic criteria, spirometric data, presence of atopy (positive “prick” skin testing to respirable antigens), presence of LAR to inhaled antigen, and presence of allergic rhinoconjunctivitis. • Allergen skin testing—Atopic asthmatic subjects are identified by skin testing using the skin prick method at a 1:10 (wt/vol) dilution of 20 stock antigen solutions (Greer Laboratories, Lenoir, N.C.). Subjects must not be receiving immunotherapy, nor may they be treated with systemic corticosteroids for a minimum of 4 wk. Short acting antihistamines are avoided for at least 24 h and long acting for at least 7 days. […] Antigenic challenge generally begins between 7:30 and 8:00 am and the patient is monitored for a minimum of 12 h following antigenic challenge. […] Following each concentration, the FEV1 is measured at 5 min intervals (DS Plus, Warren E. Collins, Inc., Braintree, Mass.). […] Once a 20% drop in FEV1 is measured, or following the highest concentration, spirometry is performed every 15 min for the first hour and then hourly for the next 11 h.

[11] = system: human neutrophils; test: In vitro metabolism of stearidonic acid in cultured human neutrophils; format: cell-based; settings: 24 h
Text: As described above, human neutrophils (in vitro in overnight culture) will take up GLA and elongate it to DGLA but not further desaturate that DGLA to AA. An alternative route to depleting AA in neutrophils may also be useful in modulating the inflammatory responses mediated by AA and its metabolites. It was contemplated that the n-3 fatty acid, stearidonic acid (18:4) would also be elongated in neutrophils to form ω-3 arachidonic acid (FIG. 1). Varying concentrations of stearidonic acid were provided to cultured neutrophils for 24 h. Lipids were extracted and the quantities of fatty acids determined after base hydrolysis using GC/MS.

[12] = 4.5 g GLA as borage oil, 3 weeks, contemplated

SMILES: CC/C=C\C/C=C\C/C=C\C/C=C\C/C=C\CCCC(=O)O [EPA, eicosapentaenoic acid]
inhibition at 50 µM [2]: 50%

SMILES: CCCCC/C=C\C/C=C\C/C=C\CCCCC(=O)O [GLA, gammalinolenic acid]
20-OH LTB4, 6-trans LTB4 and 6-trans 12-epi LTB4 levels after supplementation [3]: decreased to a similar degree
reduction in LTB4 produced by stimulated neutrophils vs before supplementation [3]: 60%
AA in serum lipids vs baseline [4]: significantly increased
increase in release of DGLA from stimulated neutrophils ([5]; 1.5 g/day GLA): 63%
increase in release of DGLA from stimulated neutrophils ([5]; 3.0 g/day GLA): 65%
increase in release of DGLA from stimulated neutrophils ([5]; 6.0 g/day GLA): 69%
release of AA from neutrophil glycerolipids after A23187 stimulation ([5]; following GLA supplementation): did not change
DGLA in eosinophil glycerolipids [6]: marked increase
quantity of AA in eosinophil glycerolipids [6]: no change
reduction in PAF produced by neutrophils vs before supplementation [7]: 40%
quantity of DGLA in neutrophil glycerolipids ([8]; cultured neutrophils, varying concentrations of GLA complexed to albumin, 24 h): increased as a function of the concentration of GLA
quantity of AA in neutrophil phospholipids ([8]; cultured neutrophils, varying concentrations of GLA, 24 h): no change
fatty acids mobilized on A23187 stimulation ([8]; neutrophils cultured with GLA (0 to 200 nmol)): DGLA along with AA were released
antigen-induced urinary LTE4 and BALF AA increases [9, 12]: attenuate
influx of eosinophils into airways during the LAR [9, 12]: reduce
response to antigen challenge (decrements in FEV1, immediate and late) [9, 12]: mitigate
magnitude of the early asthmatic response ([9]; four weeks GLA supplementation, compared to pre- and post-supplementation, two subjects): diminished
late asthmatic response ([9]; four weeks GLA supplementation, two subjects): did not influence

SMILES: C[C@]12C=CC(=O)C=C1CC[C@@H]1[C@@H]2C(=O)C[C@@]2(C)[C@H]1CC[C@]2(O)C(=O)CO [prednisone]
immediate response and LAR (fall in FEV1) after antigen challenge [10]: ablated
level of eosinophil cationic protein (ECP) in BALF after antigen challenge ([10]; p=0.03): suppressed

Second part, led by results:

IC50 [1]: ~5 µM
SMILES: CCCCCC(O)/C=C/C=C\C/C=C\CCCCCCC(=O)O (centres unmarked) [15-HETrE, 15-OH-20:3, reference compound]

IC50 ([1]; Homo sapiens, Neutrophil): ~10 µM
SMILES: CCCCC/C=C\C/C=C\C/C=C\CCCCCCC(=O)O [DGLA, dihomogammalinolenic acid]

AA in neutrophils [11]: nor was there an increase
eicosapentaenoic acid (Δ5 desaturase product of ω-3 arachidonic acid) in neutrophils [11]: no increase
SMILES: CC/C=C\C/C=C\C/C=C\C/C=C\CCCCC(=O)O [stearidonic acid]
ω-3 arachidonic acid in neutrophil glycerolipids ([11]; varying concentrations of stearidonic acid): dose-dependent increase; also recorded: dramatic increase
